Measurements as given in article PMC9399069, “Imaging PARP with [^18F]rucaparib in pancreatic cancer models” (European Journal of Nuclear Medicine and Molecular Imaging, 2022).
“And” between values parts separate entries of the source, which are not always exact repeats. Equal values may be shown once.

Assays:
PSN1 xenografts [1] = test: Ex vivo biodistribution of [18F]rucaparib in PSN1 tumour-bearing mice; design: species or system Balb/c nu/nu mice; settings: for Ex vivo biodistribution, Blood / Ex vivo biodistribution, Bone / Ex vivo biodistribution, Fat / Ex vivo biodistribution, Heart / Ex vivo biodistribution, Kidney / Ex vivo biodistribution, Large intestine / Ex vivo biodistribution, Lung / Ex vivo biodistribution, Muscle / Ex vivo biodistribution, Pancreas / Ex vivo biodistribution, Small intestine / Ex vivo biodistribution, Tumour: i.v.; for Tumour uptake / Tumour-to-blood (T/B) ratio: PSN1 xenografts; for Tumour uptake: mean ± SD
Description: Female Balb/c nu/nu (OlaHsd-Foxn1^nu) mice, aged 4–6 weeks, were purchased from Envigo (UK). Animals were housed in IVC cages, up to 6 per cage, in an artificial day–night cycle facility. Food and water were provided ad libitum.
PSN1 cells were harvested using trypsin, washed twice with PBS and reconstituted in PBS:Matrigel® Matrix High Concentration (1:1). Cell suspensions (PSN1: 2 × 10^6 cells/ 100 μL) were injected subcutaneously in the lower right flank.
Animals were administered [^18F]rucaparib (0.87–11.38 MBq in 100 μL of PBS, Am = 1.5–30.9 GBq/μmol) by intravenous injection via the lateral tail vein. To evaluate the selectivity of tumour uptake, an excess of unlabelled rucaparib or olaparib (0.5 mg) was co-administered as a blocking agent in some animals. Dynamic PET images (1 h) were acquired using a MILabs VECTor^4 camera, equipped with an ultra-high resolution rat/mouse collimator (1.8 mm), followed by a cone-beam CT scan (55 kV, 0.19 mA) for anatomical reference and attenuation correction. Animal was anesthetised by 4% isoflurane gas (0.5 L/min O2) and maintained at 2.5% at 37 °C throughout the duration of image acquisition. PET images were reconstructed using U-SPECT-Rec3.22 software (MILabs, Utrecht, The Netherlands), applying a pixel-based algorithm, ordered subset expectation maximisation (OSEM) with 6 subsets, 4 iterations and 0.8 mm voxel size for fluorine-18 (energy window settings 477.9–584.1 keV). Reconstructed PET and CT images were viewed and analysed using PMOD v.3.37 (PMOD Technologies, Zurich, Switzerland).
Either 1 h or 2 h after radiolabelled compound injection, animals were euthanised. Selected organs, tissues and blood were removed, and the percentage of the injected dose per gram of tissue (%ID/g) was determined, using a HIDEX automated gamma counter.

AsPC1 cells [2] = test: In vitro uptake and binding selectivity of [18F]rucaparib in AsPC1 cells; format: cell-based, human; settings: [TotalF]rucaparib 258 nM, 37 °C, Fig. 1B
Description: (§1) AsPC1 (1 × 10^5 cells/well) and PSN1 cells (7.5 × 10^4 cells/well) were seeded separately in 24-well plates (in 300 μL growth medium) and allowed to adhere for at least 20 h. […] To assess [^18F]rucaparib-binding selectivity, unlabelled PARP inhibitors, IMPDH2 or ALDH2 inhibitor, were added (100 μM, in 270 μL growth medium) for 45 min at 37 °C before addition of [^18F]rucaparib (156 kBq, 6.8 GBq/μmol; [^TotalF]rucaparib final concentration: 100 nM), and the cells were incubated at 37 °C for a further 45 min. Cell culture medium was removed, and cells were washed with PBS. Cells were lysed using RIPA buffer for 15 min at room temperature, and the amount of ^18F in the cell lysates was measured using an automated gamma counter (PerkinElmer), normalising for the number of cells.
(§2) Cells were lysed and the amount of ^18F in the cell lysates was measured as above.

AsPC1 cells [3] = test: Cell retention of [18F]rucaparib and [18F]olaparib in AsPC1 cells; format: cell-based, human
Description: (§3) AsPC1 (1 × 10^5 cells/well) and PSN1 cells (7.5 × 10^4 cells/well) were exposed to [^18F]rucaparib (100 kBq, 4.8 GBq/μmol; [^TotalF]rucaparib final concentration: 258 nM) or [^18F]olaparib (400 kBq, 2.8 GBq/μmol: [^TotalF]olaparib final concentration: 242 nM) in 24-well plates at 37 °C for 30 min. Cell culture medium was removed, and cells were washed with PBS, followed by the addition of fresh medium (300 μL). Cells were then further incubated at 37 °C. Cell culture medium was removed, and cells were washed with PBS at different times (0–3 h). Cells were lysed using RIPA buffer for 15 min at room temperature, and the amount of ^18F in the cell lysates was measured as above.

PSN1 cells [4] = test: In vitro uptake and binding selectivity of [18F]rucaparib in PSN1 cells; format: cell-based, human; settings: 37 °C
Description: as §1, §2

PSN1 cells [5] = test: Cell retention of [18F]rucaparib and [18F]olaparib in PSN1 cells; format: cell-based, human
Description: as §3

PSN1 xenografts [6] = test: Dynamic PET/CT imaging of [18F]rucaparib in PSN1 tumour-bearing mice; format: in vivo, Balb/c nu/nu mice
Description: Female Balb/c nu/nu (OlaHsd-Foxn1^nu) mice, aged 4–6 weeks, were purchased from Envigo (UK). Animals were housed in IVC cages, up to 6 per cage, in an artificial day–night cycle facility. Food and water were provided ad libitum. PSN1 cells were harvested using trypsin, washed twice with PBS and reconstituted in PBS:Matrigel® Matrix High Concentration (1:1). Cell suspensions (PSN1: 2 × 10^6 cells/ 100 μL) were injected subcutaneously in the lower right flank. […] Animal was anesthetised by 4% isoflurane gas (0.5 L/min O2) and maintained at 2.5% at 37 °C throughout the duration of image acquisition. PET images were reconstructed using U-SPECT-Rec3.22 software (MILabs, Utrecht, The Netherlands), applying a pixel-based algorithm, ordered subset expectation maximisation (OSEM) with 6 subsets, 4 iterations and 0.8 mm voxel size for fluorine-18 (energy window settings 477.9–584.1 keV). Reconstructed PET and CT images were viewed and analysed using PMOD v.3.37 (PMOD Technologies, Zurich, Switzerland).

[7] = 1 h post-injection, individual animals (n=3)
[8] = 2 h post-injection, individual animals (n=6)
[9] = PSN1 tumour-bearing mice, i.v., n=3
[10] = PSN1 tumour-bearing mice, i.v., n=3, biphasic

Ex vivo biodistribution, Blood (PSN1 xenografts [1]; [7]): 3.51 %ID/g and 3.67 %ID/g and 3.59 %ID/g | Ex vivo biodistribution, Bone (PSN1 xenografts [1]; [7]): 4.90 %ID/g and 6.79 %ID/g and 5.26 %ID/g | Ex vivo biodistribution, Fat (PSN1 xenografts [1]; [7]): 6.53 %ID/g and 4.98 %ID/g and 6.82 %ID/g | Ex vivo biodistribution, Muscle (PSN1 xenografts [1]; [7]): 2.63 %ID/g and 4.25 %ID/g and 3.13 %ID/g | Ex vivo biodistribution, Small intestine (PSN1 xenografts [1]; [7]): 33.79 %ID/g and 46.24 %ID/g | Ex vivo biodistribution, Tumour (PSN1 xenografts [1]; [7]): 5.25 %ID/g and 6.05 %ID/g and 5.16 %ID/g | Tumour uptake (PSN1 xenografts [1]; 1 h after i.v. administration): 5.5 ± 0.5 %ID/g and 5.49 ± 0.49 %ID/g | Tumour-to-blood (T/B) ratio (PSN1 xenografts [1]; 1 h post-administration): 1.53 ± 0.11 | Tumour-to-blood (T/B) ratio (PSN1 xenografts [1]; 2 h post-administration): 4.33 ± 2.1 | Tumour uptake (PSN1 xenografts [1]; 2 h post-administration): 2.2 ± 0.34 %ID/g | Elimination pathways (PSN1 xenografts [6]; PSN1 tumour-bearing mice, dynamic imaging and biodistribution): hepatobiliary and renal | Half-life for liver elimination (PSN1 xenografts [6]; PSN1 tumour-bearing mice, i.v.): 31 ± 19 min | Weighted blood half-life (PSN1 xenografts [6]; PSN1 tumour-bearing mice, i.v., 8.9 μg or 27.5 nmol/kg): 4.3 ± 0.62 min | Blood clearance, fraction of fast phase (PSN1 xenografts [6]; [9]): 54 ± 10% | Blood clearance, fraction of slow phase (PSN1 xenografts [6]; [9]): 46 ± 10% | Blood clearance, fast half-life (PSN1 xenografts [6]; [10]): 1.7 ± 0.44 min | Blood clearance, slow half-life (PSN1 xenografts [6]; [10]): 16 ± 10 min | Tumour-to-muscle (T/M) ratio from PET/CT images (PSN1 xenografts [6]; PSN1 xenografts, 50 min post-injection): 2.3 ± 1.1 | Time of tumour uptake (VOI analysis) (PSN1 xenografts [6]; PSN1 xenografts, dynamic PET): ≤ 10 min | Time of uptake in kidney and bladder (PSN1 xenografts [6]; dynamic PET, indicates fast renal clearance): ≤ 5 min
SMILES: CNCc1ccc(-c2[nH]c3cc([18F])cc4c3c2CCNC4=O)cc1 [[^18F]rucaparib]
Ex vivo biodistribution, Heart (PSN1 xenografts [1]; [7]): 13.27 %ID/g and 16.24 %ID/g and 17.47 %ID/g | Ex vivo biodistribution, Kidney (PSN1 xenografts [1]; [7]): 17.24 %ID/g and 30.17 %ID/g and 36.00 %ID/g | Ex vivo biodistribution, Large intestine (PSN1 xenografts [1]; [7]): 12.50 %ID/g and 16.33 %ID/g and 14.08 %ID/g | Ex vivo biodistribution, Lung (PSN1 xenografts [1]; [7]): 17.76 %ID/g and 25.71 %ID/g and 27.51 %ID/g | Ex vivo biodistribution, Pancreas (PSN1 xenografts [1]; [7]): 19.47 %ID/g and 23.54 %ID/g and 23.22 %ID/g | Ex vivo biodistribution, Blood (PSN1 xenografts [1]; [8]): 0.92 %ID/g and 0.49 %ID/g and 0.48 %ID/g and 1.57 %ID/g and 0.51 %ID/g and 0.44 %ID/g | Ex vivo biodistribution, Bone (PSN1 xenografts [1]; [8]): 3.49 %ID/g and 2.71 %ID/g and 2.38 %ID/g and 3.10 %ID/g and 2.18 %ID/g and 2.26 %ID/g | Ex vivo biodistribution, Fat (PSN1 xenografts [1]; [8]): 1.32 %ID/g and 0.74 %ID/g and 0.84 %ID/g and 1.78 %ID/g and 1.03 %ID/g and 0.86 %ID/g | Ex vivo biodistribution, Heart (PSN1 xenografts [1]; [8]): 2.44 %ID/g and 2.15 %ID/g and 1.73 %ID/g (2×) and 1.61 %ID/g and 1.27 %ID/g | Ex vivo biodistribution, Kidney (PSN1 xenografts [1]; [8]): 7.28 %ID/g and 6.56 %ID/g and 5.54 %ID/g and 7.41 %ID/g and 4.70 %ID/g and 4.13 %ID/g | Ex vivo biodistribution, Large intestine (PSN1 xenografts [1]; [8]): 23.81 %ID/g and 19.26 %ID/g and 15.83 %ID/g and 25.44 %ID/g and 36.97 %ID/g and 43.06 %ID/g | Ex vivo biodistribution, Lung (PSN1 xenografts [1]; [8]): 8.77 %ID/g and 6.24 %ID/g and 4.58 %ID/g and 9.27 %ID/g and 5.27 %ID/g | Ex vivo biodistribution, Muscle (PSN1 xenografts [1]; [8]): 2.51 %ID/g and 1.58 %ID/g and 1.90 %ID/g and 2.77 %ID/g and 1.57 %ID/g (2×) | Ex vivo biodistribution, Pancreas (PSN1 xenografts [1]; [8]): 13.99 %ID/g and 9.45 %ID/g and 9.78 %ID/g and 11.07 %ID/g and 9.35 %ID/g and 7.70 %ID/g | Ex vivo biodistribution, Small intestine (PSN1 xenografts [1]; [8]): 16.44 %ID/g and 9.50 %ID/g and 19.42 %ID/g and 22.39 %ID/g and 10.51 %ID/g and 13.44 %ID/g | Ex vivo biodistribution, Tumour (PSN1 xenografts [1]; [8]): 2.58 %ID/g and 2.10 %ID/g and 1.74 %ID/g and 2.60 %ID/g and 3.45 %ID/g and 2.99 %ID/g | Cellular uptake (time) (AsPC1 cells [2]): < 1 min | Uptake and retention compared with [TotalF]olaparib (AsPC1 cells [3]): 100 fold | Cellular uptake (time) (PSN1 cells [4]; PSN1 cells, [TotalF]rucaparib 258 nM, Fig. 1B): < 1 min | Cell association of [18F]rucaparib (PSN1 cells [4]; PSN1 versus AsPC1 cells, 64 nM and 258 nM, 30 min): higher in PSN1 cells than in AsPC1 cells | Uptake and retention compared with [TotalF]olaparib (PSN1 cells [5]): 100 fold
